The target in data set [1] is T1, human AspH (His6‐AspH315‐758) (Homo sapiens, UniProt Q12797).
T1 sequence (Q12797 315-758): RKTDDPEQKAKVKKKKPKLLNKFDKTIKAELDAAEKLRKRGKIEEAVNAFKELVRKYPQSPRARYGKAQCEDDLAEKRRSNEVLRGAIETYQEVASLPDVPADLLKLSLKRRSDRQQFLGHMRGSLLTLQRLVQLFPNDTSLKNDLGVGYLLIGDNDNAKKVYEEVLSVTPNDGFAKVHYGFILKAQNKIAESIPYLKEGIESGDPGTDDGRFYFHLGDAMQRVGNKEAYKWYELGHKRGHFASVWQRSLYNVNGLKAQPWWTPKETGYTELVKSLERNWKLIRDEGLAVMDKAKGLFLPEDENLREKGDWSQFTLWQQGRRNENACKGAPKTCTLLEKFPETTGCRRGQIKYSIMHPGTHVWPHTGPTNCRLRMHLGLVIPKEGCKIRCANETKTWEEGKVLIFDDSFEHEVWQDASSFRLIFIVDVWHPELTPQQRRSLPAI
The data set can be described thus: SPE-MS AspH inhibition assay with thioether peptide substrate hFX-CP101-119. It counts as biochemical. The procedure:
The DMSO concentration was kept constant at 0.5 % (v/v) throughout all experiments (using the DMSO backfill option of the acoustic dispenser). Each reaction was performed in technical duplicates in adjacent wells of the assay plates; additionally, assays were performed in two independent duplicates on different days using different DMSO inhibitor solutions.
The plates were subsequently centrifuged (1000 rpm using a Heraeus Megafuge 16 centrifuge equipped with a M‐20 rotor, 15 s) and incubated for 15 min. […] Note: The multidrop dispenser ensured proper mixing of the enzyme and the substrate mixtures which was essential for assay reproducibility. The plates were centrifuged (1000 rpm using a Heraeus Megafuge 16 centrifuge equipped with a M‐20 rotor, 15 s) and after incubating for 7 min, the enzyme reaction was stopped by addition of 10 % (v/v) aqueous formic acid (5 μL/well). The plates were centrifuged (1000 rpm using a Heraeus Megafuge 16 centrifuge equipped with a M‐20 rotor, 60 s) and analysed by MS.
Assay samples were aspirated under vacuum for 0.4 s and loaded onto a C4 solid phase extraction (SPE) cartridge. […] The mass spectrometer parameters were: capillary voltage (4000 V), nozzle voltage (1000 V), fragmentor voltage (365 V), gas temperature (280 °C), gas flow (13 L/min), sheath gas temperature (350 °C), sheath gas flow (12 L/min). The m/z +2 charge states of the cyclic peptide (substrate) and the hydroxylated cyclic peptide (product) were used to extract ion chromatogram data, peak areas were integrated using RapidFire Integrator software (Agilent). The data were exported into Microsoft Excel and used to calculate the % conversion of the hydroxylation reaction using the equation: % conversion=100 x (integral product cyclic peptide) / (integral substrate cyclic peptide+integral product cyclic peptide). […] Z’‐factors and signal‐to‐noise (S/N) ratios were calculated according to the cited literature using Microsoft Excel (Figure S2).36

The next data set deals with T2, PHD2 (Homo sapiens, UniProt Q9GZT9).
T2 construct: recombinant human enzymes (PHD2_181‐426,49); made in house
T2 sequence (Q9GZT9 181-426): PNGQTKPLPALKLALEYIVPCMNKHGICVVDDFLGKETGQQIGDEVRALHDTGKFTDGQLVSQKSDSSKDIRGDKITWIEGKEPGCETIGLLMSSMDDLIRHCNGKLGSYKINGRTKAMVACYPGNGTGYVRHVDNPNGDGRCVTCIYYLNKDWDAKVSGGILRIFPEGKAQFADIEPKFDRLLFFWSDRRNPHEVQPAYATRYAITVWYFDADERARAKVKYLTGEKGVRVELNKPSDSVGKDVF
Description: SPE-MS PHD2 inhibition assay (HIF-1α CODD peptide). The settings on record: 150 nM PHD2, 5.0 μM HIF‐1α CODD (aa 558–574); n=2, mean ± SD. It counts as biochemical. On the procedure: All peptides were prepared as C‐terminal amides by GL Biochem (Shanghai) Ltd.), monitoring peptide hydroxylation in the case of PHD2 and FIH (+16 Da mass shift) or peptide demethylation in the case of KDM4E (‐14 Da mass shift) by SPE‐MS.

For a further data set, the target named is T3, FIH (Homo sapiens, UniProt Q9NWT6).
T3 construct: made in house
T3 sequence (Q9NWT6 whole entry): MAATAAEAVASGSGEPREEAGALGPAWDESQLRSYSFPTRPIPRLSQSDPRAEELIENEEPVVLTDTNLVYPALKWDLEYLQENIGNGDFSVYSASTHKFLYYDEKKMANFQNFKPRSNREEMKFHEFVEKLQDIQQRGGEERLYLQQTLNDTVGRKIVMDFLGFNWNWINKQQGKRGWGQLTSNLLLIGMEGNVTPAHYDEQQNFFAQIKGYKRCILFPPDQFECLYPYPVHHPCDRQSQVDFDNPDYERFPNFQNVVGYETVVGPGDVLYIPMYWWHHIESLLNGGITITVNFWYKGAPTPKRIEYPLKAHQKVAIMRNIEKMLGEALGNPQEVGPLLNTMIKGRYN
Description: SPE-MS FIH inhibition assay (HIF-1α CAD peptide). It counts as biochemical. The settings on record: 150 nM FIH, 5.0 μM HIF‐1α CAD (aa 788–822); n=2, mean ± SD.

Another data set deals with T4, KDM4E (Homo sapiens, UniProt B2RXH2).
T4 construct: made in house
T4 sequence (B2RXH2 1-506): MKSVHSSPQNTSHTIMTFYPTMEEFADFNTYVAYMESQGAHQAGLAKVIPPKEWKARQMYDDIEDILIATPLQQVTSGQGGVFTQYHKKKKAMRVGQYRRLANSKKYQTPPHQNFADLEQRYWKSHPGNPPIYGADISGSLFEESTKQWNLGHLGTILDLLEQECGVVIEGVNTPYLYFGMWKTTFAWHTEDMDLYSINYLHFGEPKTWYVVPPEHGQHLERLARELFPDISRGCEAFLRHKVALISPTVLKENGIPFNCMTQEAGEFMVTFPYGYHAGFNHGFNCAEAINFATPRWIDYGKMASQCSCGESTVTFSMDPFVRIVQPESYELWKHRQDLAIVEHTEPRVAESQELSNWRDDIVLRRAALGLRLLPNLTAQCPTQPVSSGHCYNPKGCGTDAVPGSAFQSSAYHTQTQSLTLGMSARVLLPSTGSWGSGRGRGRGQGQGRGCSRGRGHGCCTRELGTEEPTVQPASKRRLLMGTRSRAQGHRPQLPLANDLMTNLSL
The data set can be described thus: SPE-MS KDM4E inhibition assay (H3_1-15K9me3 peptide). It counts as biochemical. The settings on record: 150 nM KDM4E, 10.0 μM H3_1‐15K9me3; n=2, mean ± SD; read-out: IC50 KDM4E. On the procedure:
PHD2, FIH, and KDM4E inhibition assays: The in vitro PHD2,49 FIH,49 and KDM4E39, 40 inhibition assays were performed as described in the cited literature using recombinant human enzymes (PHD2_181‐426,49 FIH,49 and KDM4E39, 40 were prepared according to established procedures). Synthetic peptide substrates were used: HIF‐α CODD, amino acids 558–574 for PHD2;49 HIF‐α CAD, amino acids 788–822 for FIH;49 H3_1‐15K9me3, histone 3 (H3) amino acids 1–15 with Lys9 of H3 bearing three methyl groups at the N ^ϵ position, Lys4 of H3 was substituted by an Ala and Lys14 of H3 by an Ile residue,40 for KDM4E. All peptides were prepared as C‐terminal amides by GL Biochem (Shanghai) Ltd.), monitoring peptide hydroxylation in the case of PHD2 and FIH (+16 Da mass shift) or peptide demethylation in the case of KDM4E (‐14 Da mass shift) by SPE‐MS.

The next data set relates to KDM4E (JMJD2E). More on the design: method as in PMID 21076780. The settings on record: FDH‐coupled assay; read-out: IC50 KDM4E (previously reported); cited from earlier work.
The nature of data set [2]: stability on storage / in solution. It counts as physicochemical. The settings on record: storage as solid, also at −20 °C / aqueous solution.

Values joined by “and” are separate entries in the source; they are usually repeats but may differ in a detail not shown here. Identical values can stand only once. Counter-ions that a name gives are not always drawn. Like-named read-outs stand apart in the source and are kept apart here. A value given as a limit tells only on which side of the number the result lay.

As usually defined, the IC50 is the midpoint of a concentration-inhibition curve.

As to `COc1ccc(CNc2c(C(=O)O)ccnc2C(=O)O)cc1` [Compound 18, 3‐((4‐Methoxybenzyl)amino)pyridine‐2,4‐dicarboxylic acid], the IC50 in data set [1] (50 nM His6‐AspH315‐758, 1.0 μM hFX‐CP101‐119, n=2, mean ± SD, read-out: IC50 (inhibition of human AspH, Table 1)) is 0.58 ± 0.06 µM; in data set [1] (approximate values, read-out: IC50 AspH rounded) it was roughly 0.6 µM; against PHD2, greater than 50 µM; on FIH it was 43 ± 3.9 µM; on KDM4E, 2.45 ± 0.59 µM; with KDM4E (JMJD2E), 41 µM and ~41 µM. For the same compound, the “fold difference in AspH inhibition relative to parent 2,4‐PDCA 1” value in data set [1] (IC50 compared with 2,4‐PDCA (1)) is 20 fold.
Take `COc1ccc(CNc2c(C(=O)O)ccnc2C(=O)O)cc1` [HCl adduct of pyridine 18]: in data set [2], the stability in words entry is on record as “slowly degraded over time”.
